From publication PMC5458211, “Mitochondrial VDAC1-based peptides: Attacking oncogenic properties in glioblastoma” (Oncotarget, 2017)
Non-standard residues stand in square brackets, D forms with d. Residues, ends and D or L forms follow the SMILES beside them.

Tests used:
SH-SY5Y cells = experiment: Cell death by PI staining and flow cytometry, SH-SY5Y; type: cell-based; conditions: human neuroblastoma, 6 h at 37°C, serum-free medium, Suppl Fig 1
Description: Cells (6×10^5 /ml) were incubated in 500 μl serum-free medium with the peptide of interest for 6 h at 37°C in the presence of 5% CO2. The cells were then trypsinized, centrifuged (1500xg, 5 min), washed with PBS and analyzed for cell death using propidium iodide (PI) staining and flow cytometer (Beckton-Dickinson, San Jose, CA) and BD CellQuest Pro software. Apoptotic cell death was also analyzed by PI and annexin V-FITC staining, and by acridine orange and ethidium bromide staining and light microscopy (Olympus LX2-KSP). […]
was subsequently visualized by incubating with DAB. […]
Supplementary Figure 1: VDAC1-based peptides induce dramatic cell death of several brain tumor-derived cell […]
Ter-Antp (●) peptide in serum-free appropriate growth medium for 6 h at 37°C. Cells were harvested, washed twice with PBS and cell death was analyzed by propidium iodide (PI) staining and ﬂow cytometry. D. Summary of IC50 values (μM) for the peptides with the indicated […]
(also on this page, place not known: www.impactjournals.com/oncotarget/ Oncotarget, Materials 2017 V , Supplementary) […]

U-87MG xenograft tumors = experiment: TUNEL staining of xenograft tumor sections; type: in vivo, human U-87MG in nude mice; conditions: s.c. U-87MG tumor sections; Fig 4A
Source text: Red color indicates PI nuclear staining and green color TUNEL staining. B. Representative sections from PBS/DMSO- and peptide-TTs IHC stained for p53, Cyto c, AIF, Caspase 3 and Smac/Diablo and then hematoxylin-stained and visualized by microscopy. C. Tissue lysates obtained from controls and several Tf-D-LP4-TTs were immunoblotted for p53, Caspase 8, Cyto c, Smac/Diablo, Caspase 3 and Bcl-2. D. Quantitative analysis of immunoblots is shown (n=2-4).
Paraffin-embedded -fixed tumors sections were processed for a TUNEL assay using the DeadEnd Fluorometric TUNEL system (Promega) according to the manufacturer's instructions. Sections were deparaffinized, equilibrated in PBS, permeabilized with proteinase K, post-fixed in 4% paraformaldehyde, and incubated in TdT reaction mix for 1 h at 37 °C in the dark. Slides were then washed in 2X SSC buffer and counterstained with propidium iodide (1 μg/ml), and cover-slipped with Vectashield mounting medium. Fluorescent images of apoptotic cells (green) and cell nuclei (red) were captured using a confocal microscope (Olympus 1×81).

[1] = system: metabolic enzymes and transporters; experiment: Expression of energy- and metabolism-related proteins in treated tumors (IHC, immunoblot); type: in vivo, human U-87MG in nude mice; conditions: for VDAC1 staining: treated tumors vs strong staining in PBS/DMSO
Source text: Figure 5 VDAC1-based peptide-treated tumors show marked changes in the expression of energy- and metabolism-related enzymes Dissected tumors were subjected to immunohistochemistry as described in Experimental Procedures. A, B. Representative sections from PBS/DMSO- and Tf-D-LP4-TTs were IHC stained for Glut-1, HK-I, HK-II, GAPDH, LDH, VDAC1, CS, Complex IVc and ATP synthase 5a are presented. Sections were also hematoxylin-stained and visualized by microscopy. C. Tissue lysates obtained from controls and several Tf-D-LP4-TTs were immunoblotted for HK-I, HK-II, VDAC1, GAPDH, LDH, CS, and ATP synthase 5a. D. Quantitative analysis of immunoblots is shown (n=2-4).
Formalin-fixed, paraffin-embedded sections of control and peptide-TTs were hematoxylin-eosin stained, probed with appropriate antibodies via IHC staining or immunoblotting of cells and tissue extracts. […]
10 ml of aqueous solution containing 1% PVA (w/v). The software. These experimental protocols were approved by mixtures were stirred continuously at room temperature the Institutional Animal Care and Use Committee of Ben-until complete evaporation of the organic solvent. The Gurion University. […]
HBSS solution. Cells or tumor tissue were lysed using lysis buffer (50 mM Tris-HCl, pH 7.5, 150 mM NaCl, 1
Xenograft and intracranial-orthotopic mouse mM EDTA, 1.5 mM MgCl2, 10% glycerol, 1% Triton models X-100, supplemented with a protease inhibitor cocktail
(Calbiochem, UK). Cell lysates were then centrifuged at U-87MG glioblastoma cells (3 x106) were inoculated 600xg (10 min at 4°C) and samples (10-40 μg of protein) s.c. into the hind leg ﬂanks of athymic eight-week old were subjected to SDS-PAGE and immunoblotting male nude mice (Envigo). Thirteen days post-inoculation, using various primary antibodies (sources and dilutions tumor volume was measured and calculated (100-130 as detailed in supplementary Table 2), followed by mm3) and mice were randomized into three groups (5 the appropriate HRP-conjugated secondary antibodies mice/group). Each treatment substance was injected into (i.e., anti-mouse, anti-rabbit or anti-goat). Blots the established s,c. tumors using PBS containing 0.26% were developed using enhanced chemiluminescence DMSO or peptide in PBS, 0.26% DMSO/20 μM). The (Biological Industries). Band intensities were analyzed xenografts were injected 20 µl per tumor (2 points) every by densitometry using Multi Gauge software (Fujifilm) two days. Beginning on the day of inoculation, mouse and the values were normalized to the intensities of the weight and tumor volume were monitored twice a week appropriate β-actin signal that served as a loading control. for a period of 23 days using a digital caliper. At the end of the experiments, the mice were sacrificed, tumors were IHC of tumor tissue sections excised and ex vivo weight was determined. Half of each tumor was either fixed in 4% buffered formaldehyde, IHC staining was performed on 5 μm-thick paraffin-embedded and processed for IHC or frozen in formalin-fixed and paraffin-embedded tumor tissue liquid nitrogen for later immunoblot analysis. sections. The sections were deparaffinized by placing To generate an intracranial-orthotopic mouse model, the slides at 60°C for 1 h and using xylene. […]
(Stoelting, Wood Dale, IL). A middle incision was made c, cytochrome c oxidase subunit IVc, GAPDH, Glut1, on the skull and a burr hole was introduced 0.5 mm HK-II, Klf4, LDH, Nestin, NGFR, P53, SMAC/Diablo, anterior to the bregma and 2.5 mm lateral to the midline Sox2, S100b, VDAC1) was performed in 0.01 M citrate using a drill (Stoelting). A 31-gauge needle loaded with buffer (pH 6.0). For CD31, HK-I and Ki-67, antigen 10 µL PBS was used to deliver tumor cells. The needle retrieval was performed in 10 mM Tris-EDTA (pH 9) and tip was inserted into the brain 3 mm deep, relative to the 0.5 M Tris (pH 10), for 30 minutes each at 95-98°C. After […]

Row | SMILES | cell death, SH-SY5Y (SH-SY5Y cells) | TUNEL-positive cells (U-87MG xenograft tumors) | VDAC1 staining [1] | ATP synthase subunit 5a expression ([1]; treated tumors vs PBS/DMSO) | GAPDH level ([1]; treated tumors vs PBS/DMSO) | Glut-1 level ([1]; treated tumors vs PBS/DMSO) | HK-I level ([1]; treated tumors vs PBS/DMSO) | HK-II level ([1]; treated tumors vs PBS/DMSO) | LDH level ([1]; treated tumors vs PBS/DMSO) | citrate synthase (CS) expression ([1]; treated tumors vs PBS/DMSO) | complex IVc expression ([1]; treated tumors vs PBS/DMSO)
1 | CC[C@@H](C)[C@@H](NC(=O)[C@@H](CCCCN)NC(=O)[C@H](NC(=O)[C@@H](CCC(N)=O)NC(=O)[C@@H](CCCNC(=N)N)NC(=O)[C@@H](CC(C)C)NC(=O)CNC(=O)[C@@H](Cc1ccccc1)NC(=O)CNC(=O)[C@@H](Cc1ccc(O)cc1)NC(=O)CNC(=O)[C@@H](CCCCN)NC(=O)[C@H](NC(=O)[C@@H](Cc1ccccc1)NC(=O)[C@H](NC(=O)[C@@H](CC(=O)O)NC(=O)[C@H](N)CCCNC(=N)N)C(C)C)[C@H](C)O)[C@H](C)CC)C(=O)N[C@H](Cc1c[nH]c2ccccc12)C(=O)N[C@H](Cc1ccccc1)C(=O)N[C@H](CCC(N)=O)C(=O)N[C@H](CC(N)=O)C(=O)N[C@H](CCCNC(=N)N)C(=O)N[C@H](CCCNC(=N)N)C(=O)N[C@H](CCSC)C(=O)N[C@H](CCCCN)C(=O)N[C@H](Cc1c[nH]c2ccccc12)C(=O)N[C@H](CCCCN)C(=O)N[C@H](CCCCN)C(=O)O [D-ΔN-Ter-Antp] (H-[dR][dD][dV][dF][dT][dK]G[dY]G[dF]G[dL][dR][dQ][dI][dK][dI][dW][dF][dQ][dN][dR][dR][dM][dK][dW][dK][dK]-OH; N-terminus and C-terminus assumed) | effectively induce cell death | the majority of the cells were TUNEL-positive | only very weak staining |  |  |  |  |  |  |  | 
2 | CC[C@H](C)[C@H](NC(=O)[C@H](C)NC(=O)[C@@H](N)Cc1c[nH]cn1)C(=O)N[C@@H](Cc1ccc(O)cc1)C(=O)N1CCC[C@H]1C(=O)N[C@@H](CCCNC(=N)N)C(=O)N[C@@H](Cc1c[nH]cn1)C(=O)N[C@@H](CO)C(=O)N[C@@H](Cc1c[nH]c2ccccc12)C(=O)N[C@H](C(=O)N[C@@H](Cc1c[nH]c2ccccc12)C(=O)N[C@@H](CCC(=O)O)C(=O)N[C@H](CCCCN)C(=O)N[C@H](CCCCN)C(=O)N[C@H](CC(C)C)C(=O)N[C@H](CCC(=O)O)C(=O)N[C@@H](C(=O)N[C@H](C)C(=O)N[C@@H](C(=O)N[C@H](CC(N)=O)C(=O)N[C@H](CC(C)C)C(=O)N[C@H](C)C(=O)N[C@H](Cc1c[nH]c2ccccc12)C(=O)N[C@@H](C(=O)N[C@H](C)C(=O)NCC(=O)N[C@H](CC(N)=O)C(=O)N[C@H](CO)C(=O)N[C@H](CC(N)=O)C(=O)N[C@@H](CCCCN)C(=O)N[C@@H](Cc1c[nH]c2ccccc12)C(=O)N[C@H](C(=O)N[C@@H](Cc1c[nH]c2ccccc12)C(=O)N[C@@H](CCCCN)C(=O)O)[C@@H](C)O)[C@H](C)O)C(C)C)[C@H](C)O)[C@@H](C)O [Tf-D-LP4] | effectively induce cell death | the majority of the cells were TUNEL-positive | only very weak staining | markedly lower | dramatically lower | dramatically lower | dramatically lower | dramatically lower | dramatically lower | markedly lower | markedly lower
